In BindingDB's records for doi:10.1016/j.bmc.2009.08.052 (Okayama University, 2009):

Assays:
[1] = molecular target: Beta-hexosaminidase (Homo sapiens); assay: Inhibition of human placenta beta-N-acetylglucosaminidase by pNP-GlcNAc substrate hydrolysis assay
[2] = molecular target: Beta-hexosaminidase (Homo sapiens); assay: Mixed type inhibition of human placenta beta-N-acetylglucosaminidase by pNP-GlcNAc substrate hydrolysis assay

`CC(=O)NC[C@H]1[C@H](O)[C@H](O)[C@@H]2[C@H](O)C[C@@H](CO)N21` [(1R*, 3S*, 5S*, 6S*, 7R*, 7a S*)-5-acetamidomethyl-3-hydroxymethyl-1,6,7-trihydroxypyrrolizidine] showed an IC50 [1] of 2.39 nM and a Ki [2] of 1.25 nM.
